Assay results taken from US20040067998A1, “Antifungal and/or antiparasitic pharmaceutical composition and novel indole derivatives as active principle of such a composition” (priority 2003, published 2004).
≈ marks a conversion by molar mass, not a printed value. Where “and” joins values, the source holds several entries; their conditions need not be identical. Equal values may be shown once. Read-outs that look alike come from different tables or passages of the source.

How the values were obtained:
Format in all cases: cell-based
[1] = system: Candida albicans (strain n° CA980001); assay: Antifungal activity on a clinical strain of Candida albicans (MTT colorimetric microplate test); conditions: for CMI or CI80 Candida albicans (CA980001) / MIC: strain CA980001; for activity of inhibition of Candida albicans (in words): summary of Tables 27 to 40; for MIC: read-out: CMI or CI80 Candida albicans (CA980001)
[2] = system: Aspergillus fumigatus (strain n°AF 980003); assay: Antifungal activity on a clinical strain of Aspergillus fumigatus (Alamar Blue microplate test); conditions: for MIC / CMI or CI80 Aspergillus fumigatus (AF980003): strain AF980003; for MIC: read-out: CMI or CI80 Aspergillus fumigatus (AF980003); for activity against Aspergillus fumigatus (in words): summary of Tables 27 to 40
[3] = system: promastigote stage of Leishmania mexicana; assay: Antiparasitic activity on the promastigote form of Leishmania (MTT); conditions: for IC50: read-out: CI50 Leishmania mexicana Promastigotes
[4] = promastigotes, 36 h at 26° C., MTT
[5] = Candida albicans, 24 h at 37° C., MTT
[6] = Aspergillus fumigatus, Alamar Blue
[7] = Leishmania mexicana, promastigotes, 36 h at 26° C., MTT

Fc1ccc(C(C(n2ccc3ccccc32)n2nnc3ccccc32)n2ccnc2)cc1 (mixture of isomers) [compound 83]
CMI or CI80 Candida albicans (CA980001) [1]: 55 ± 5 μM and 23 ± 2 μg/mL
MIC [2]: >100 µM
CI50 Leishmania mexicana Promastigotes [3]: 1.85 ± 0.03 µg/mL
IC50 [3]: 4.4 ± 0.07 µM

CCN1CCc2cccc(C(c3cccc(Cl)c3)n3ccnc3)c21 (racemic) [compound 48]
CMI or CI80 Candida albicans (CA980001) ([1]; 24 h at 37° C., MTT): 0.06 ± 0.01 μM and 0.02 ± 0.01 μg/ml
activity of inhibition of Candida albicans (in words) [1]: most active
CMI or CI80 Aspergillus fumigatus (AF980003) ([2]; Alamar Blue): 58 ± 4 μM and 26 ± 2 μg/ml
activity against Aspergillus fumigatus (in words) [2]: strong activity
activity against Leishmania mexicana (in words) [3]: strong activity
CI50 Leishmania mexicana Promastigotes [3, 4]: 1 ± 0.3 µg/mL (≈ 2.96 µM)
IC50 [3, 4]: 3 ± 1 µM

Fc1ccc(Cn2c(Cn3ccnc3)cc3ccccc32)cc1.O=[N+]([O-])O [3n]
CMI or CI80 Candida albicans (CA980001) ([1]; 24 h at 37° C., MTT): 16 ± 6 μM and 6 ± 2 μg/ml

CC(C)(C)c1ccc(Cn2cc(Cn3ccnc3)c3ccccc32)cc1.O=C(O)/C=C/C(=O)O [7f]
MIC ([1]; 24 h at 37° C., MTT): >100 µM
CMI or CI80 Aspergillus fumigatus (AF980003) ([2]; Alamar Blue): 70 ± 3 μM and 32.17 ± 3 μg/ml
CI50 Leishmania mexicana Promastigotes [3]: 3.9 ± 0.09 µg/mL
activity against Leishmania mexicana (in words) [3]: strong activity
IC50 [3]: 8.4 ± 0.5 µM

Fc1ccc(Cn2ccc3ccc(Cn4ccnc4)cc32)cc1.O=[N+]([O-])O [19n]
CMI or CI80 Candida albicans (CA980001) ([1]; 24 h at 37° C., MTT): 77 ± 1 μM and 28.36 ± 1 μg/ml
MIC ([2]; Alamar Blue): >100 µM

CCn1c(C(c2cccc(Br)c2)n2ccnc2)c(C)c2ccccc21.O=[N+]([O-])O (stereo not shown) [26n]
CMI or CI80 Candida albicans (CA980001) [1]: 60 ± 1 μM and 27 ± 1 μg/mL

CCn1c(C(c2ccc(Br)cc2)n2ccnc2)c(C)c2ccccc21.O=[N+]([O-])O (stereo not shown) [27n]
CMI or CI80 Candida albicans (CA980001) [1]: 57 ± 4 μM and 25 ± 2 μg/mL

CCn1c(C(c2cccc(Cl)c2)n2ccnc2)c(C)c2ccccc21.O=[N+]([O-])O (stereo not shown) [28n]
CMI or CI80 Candida albicans (CA980001) [1]: 58 ± 2 μM and 24 ± 1 μg/mL

CCn1c(C(c2ccc(Cl)cc2)n2ccnc2)c(C)c2ccccc21.O=[N+]([O-])O (stereo not shown) [29n]
CMI or CI80 Candida albicans (CA980001) [1]: 6 ± 1 μM and 2 ± 1 μg/mL
activity of inhibition of Candida albicans (in words) [1]: significant activity

CCn1c(C(c2ccc(F)cc2)n2ccnc2)c(C)c2ccccc21.O=[N+]([O-])O (stereo not shown) [31n]
CMI or CI80 Candida albicans (CA980001) [1]: 7 ± 0.3 μM and 2.77 ± 0.3 μg/mL
activity of inhibition of Candida albicans (in words) [1]: significant activity
CMI or CI80 Aspergillus fumigatus (AF980003) [2]: 16 ± 3 μM and 6 ± 1 μg/mL
activity against Aspergillus fumigatus (in words) [2]: most active
activity against Leishmania mexicana (in words) [3]: most active
IC50 ([3]; promastigotes): < 0.1 µM

CCn1cc(C(c2cccc(Cl)c2)n2ccnc2)c2ccccc21.O=[N+]([O-])O (stereo not shown) [40n]
CMI or CI80 Candida albicans (CA980001) [1]: 7 ± 1 μM and 3.1 ± 1 μg/mL
activity of inhibition of Candida albicans (in words) [1]: significant activity

CCn1cc(C(c2ccc(Cl)cc2)n2ccnc2)c2ccccc21.O=[N+]([O-])O (stereo not shown) [41n]
CMI or CI80 Candida albicans (CA980001) [1]: 19 ± 10 μM and 8 ± 4 μg/mL

CCn1cc(C(c2ccc(Cl)cc2Cl)n2ccnc2)c2ccccc21.O=[N+]([O-])O (stereo not shown) [42n]
CMI or CI80 Candida albicans (CA980001) [1]: 73 ± 3 μM and 32 ± 1 μg/mL

CCn1ccc2cccc(C(c3cccc(Cl)c3)n3ccnc3)c21.O=[N+]([O-])O (stereo not shown) [55n]
CMI or CI80 Candida albicans (CA980001) [1]: 0.039 µg/mL
MIC [1]: 0.098 µM
activity of inhibition of Candida albicans (in words) [1]: most active
MIC [2]: >100 µM

CCn1ccc2cccc(C(c3ccc(Cl)cc3)n3ccnc3)c21.O=[N+]([O-])O (stereo not shown) [56n]
CMI or CI80 Candida albicans (CA980001) [1]: 0.16 µg/mL
MIC [1]: 0.4 µM
activity of inhibition of Candida albicans (in words) [1]: most active

Clc1ccc(Cn2cc(CCCCn3ccnc3)c3ccccc32)cc1.O=[N+]([O-])O [61n]
MIC [1]: >100 µM
MIC [2]: >100 µM
CI50 Leishmania mexicana Promastigotes [3]: 20.05 ± 0.3 µg/mL
IC50 [3]: 62 ± 0.3 µM

CCC(c1cn(Cc2ccc(Cl)cc2)c2ccccc12)n1ccnc1.O=[N+]([O-])O (stereo not shown) [64n]
CMI or CI80 Candida albicans (CA980001) [1]: 36 ± 10 μM and 15 ± 4 μg/mL
CMI or CI80 Aspergillus fumigatus (AF980003) [2]: 57 ± 5 μM and 23.53 μg/mL
activity against Aspergillus fumigatus (in words) [2]: strong activity
CI50 Leishmania mexicana Promastigotes ([3]; promastigotes): 2.97 ± 0.02 µg/mL
IC50 ([3]; promastigotes): 7.2 ± 0.07 µM

CCCC(c1cn(Cc2ccc(Cl)cc2)c2ccccc12)n1ccnc1.O=C(O)/C=C/C(=O)O (stereo not shown) [65f]
MIC [1]: >100 µM
MIC [2]: >100 µM
CI50 Leishmania mexicana Promastigotes [3]: 37.7 ± 4.5 µg/mL
IC50 [3]: 78.7 ± 9.5 µM

CCCCC(c1cn(Cc2ccc(Cl)cc2)c2ccccc12)n1ccnc1.O=C(O)/C=C/C(=O)O (stereo not shown) [66f]
CMI or CI80 Candida albicans (CA980001) [1]: 7 ± 0.1 μM and 3.46 μg/mL
activity of inhibition of Candida albicans (in words) [1]: significant activity
MIC [2]: >100 µM
CI50 Leishmania mexicana Promastigotes ([3]; promastigotes): 2.6 ± 0.03 µg/mL
IC50 ([3]; promastigotes): 5.4 ± 0.06 µM

CC(c1cn(Cc2ccc(F)cc2)c2ccccc12)n1ccnc1.O=C(O)/C=C/C(=O)O (stereo not shown) [67f]
CMI or CI80 Candida albicans (CA980001) [1]: 57 ± 2 μM and 25 ± 1 μg/mL
CMI or CI80 Aspergillus fumigatus (AF980003) [2]: 64 ± 2 μM and 28 ± 1 μg/mL
activity against Aspergillus fumigatus (in words) [2]: strong activity
CI50 Leishmania mexicana Promastigotes ([3]; promastigotes): 1.57 ± 1.2 µg/mL
IC50 ([3]; promastigotes): 3.6 ± 1.2 µM

CC(c1cn(Cc2ccc(Cl)cc2Cl)c2ccccc12)n1ccnc1.O=C(O)/C=C/C(=O)O (stereo not shown) [68f]
CMI or CI80 Candida albicans (CA980001) [1]: 31 ± 7 μM and 15 ± 3 μg/mL
CMI or CI80 Aspergillus fumigatus (AF980003) [2]: 65 ± 3 μM and 31 ± 1 μg/mL
activity against Aspergillus fumigatus (in words) [2]: strong activity
CI50 Leishmania mexicana Promastigotes ([3]; promastigotes): 2.7 ± 0.05 µg/mL
IC50 ([3]; promastigotes): 5.7 ± 0.13 µM

CC(c1cn(Cc2ccc(F)cc2F)c2ccccc12)n1ccnc1.O=[N+]([O-])O (stereo not shown) [69n]
CMI or CI80 Candida albicans (CA980001) [1]: 65 ± 6 μM and 26 ± 5 μg/mL
CMI or CI80 Aspergillus fumigatus (AF980003) [2]: 64 ± 5 μM and 21.59 μg/mL
activity against Aspergillus fumigatus (in words) [2]: strong activity

Cc1c(C(C)n2ccnc2)c2ccccc2n1Cc1ccc(Cl)cc1Cl.O=[N+]([O-])O (stereo not shown) [71n]
CMI or CI80 Candida albicans (CA980001) [1]: 52 ± 3 μM and 23.31 μg/mL
CMI or CI80 Aspergillus fumigatus (AF980003) [2]: 74 ± 3 μM and 28.44 μg/mL

Fc1ccc(Cn2ccc3cc(-c4nnn[nH]4)ccc32)cc1 [Cpsé 2, 1-(4-Fluorobenzyl)-5-(1H-tetrazol-5-yl)-1H-indole]
MIC [1, 5]: 64 ± 1 µM (≈ 18.8 µg/mL)
CMI or CI80 Candida albicans (CA980001) ([1]; 24 h at 37° C., MTT, listed as 4): 19.54 ± 1 µg/mL
MIC [2, 6]: > 100 µM
activity against Leishmania mexicana (in words) [3]: strong activity
IC50 [3, 7]: 3 µg/mL and 10 µM

Fc1ccc(Cn2c(Cn3ccnc3)cc3ccccc32)cc1 [Cpsé 3n, 1-(4-Fluorobenzyl)-2-(1H-imidazol-1-ylmethyl)-1H-indole]
MIC [1, 5]: 81 ± 14 µM (≈ 24.7 µg/mL)
CMI or CI80 Candida albicans (CA980001) ([1]; 24 h at 37° C., MTT, listed as 9): 32.46 ± 14 µg/mL
MIC [2, 6]: 21 ± 0.3 µM (≈ 6.41 µg/mL)
CMI or CI80 Aspergillus fumigatus (AF980003) ([2]; Alamar Blue): 8 ± 1.2 µg/mL
activity against Aspergillus fumigatus (in words) [2]: most active
activity against Leishmania mexicana (in words) [3]: strong activity
IC50 [3, 7]: 3.4 µg/mL and 8.5 µM

Clc1ccc(Cn2cc(Cn3ccnc3)c3cc(Br)ccc32)cc1 [Cpsé 10, 5-Bromo-1-(4-chlorobenzyl)-3-(1H-imidazol-1-ylmethyl)-1H-indole]
MIC [1, 5]: > 100 µM
MIC [2, 6]: > 100 µM
activity against Leishmania mexicana (in words) [3]: strong activity
IC50 [3, 7]: 3 µg/mL and 7.5 µM

CCn1c(C(c2ccc(F)cc2)n2ccnc2)c(C)c2ccccc21 (stereo not shown) [Cpsé 31, 1-Ethyl-2-[(4-fluorophenyl)(1H-imidazol-1-yl)methyl]-3-methyl-1H-indole]
MIC [1, 5]: 58 ± 4 µM (≈ 19.3 µg/mL)
CMI or CI80 Candida albicans (CA980001) ([1]; 24 h at 37° C., MTT, listed as 18): 18 ± 1 µg/mL

CCn1cc(C(c2ccc(F)cc2)n2ccnc2)c2cc(Br)ccc21 (stereo not shown) [Cpsé 46, 5-Bromo-1-ethyl-3-[(4-fluorophenyl)(1H-imidazol-1yl)methyl]-1H-indole]
MIC [1, 5]: > 100 µM
MIC [2, 6]: > 100 µM
IC50 [3, 7]: 65 µM and 21 µg/mL

CCn1ccc2cc(C(c3ccc(Cl)cc3)n3ccnc3)ccc21 (stereo not shown) [Cpsé 53, 5-[(4-Chlorophenyl)(1H-imidazol-1-yl)methyl]-1-ethyl-1H-indole]
MIC [1, 5]: > 100 µM
MIC [2, 6]: > 100 µM
IC50 [3, 7]: > 100 µM

CCC(C)n1ncn(-c2ccc(N3CCN(c4ccc(OCC5COC(Cn6cncn6)(c6ccc(Cl)cc6Cl)O5)cc4)CC3)cc2)c1=O (stereo not shown) [Itraconazole]
MIC ([2]; Aspergillus fumigatus): 0.71 µM (≈ 0.501 µg/mL)
CMI or CI80 Aspergillus fumigatus (AF980003) [2]: 0.5 µg/mL

N#Cc1ccc(Cn2cc(Cn3ccnc3)c3cc(Br)ccc32)cc1 [compound 13]
CMI or CI80 Candida albicans (CA980001) ([1]; 24 h at 37° C., MTT): 59 ± 5 μM and 23 ± 2 μg/ml

Fc1ccc(Cn2ccc3c(Cn4ccnc4)cccc32)cc1 [compound 17]
CMI or CI80 Candida albicans (CA980001) ([1]; 24 h at 37° C., MTT): 54 ± 1 μM and 16.49 ± 1 μg/ml
CMI or CI80 Aspergillus fumigatus (AF980003) ([2]; Alamar Blue): 72 ± 3 μM and 21.99 ± 2 μg/ml

CCn1c(C(c2ccc(Cl)cc2Cl)n2ccnc2)c(C)c2ccccc21 (stereo not shown) [compound 30]
CMI or CI80 Candida albicans (CA980001) [1]: 76 ± 2 μM and 25 ± 1 μg/mL

OC(Cn1cncn1)(Cn1ccc2ccccc21)c1ccc(C(F)(F)F)cc1 (stereo not shown) [compound 79]
MIC [1]: <0.001 µM

CC(n1ccc2ccccc21)C(O)(Cn1cncn1)c1ccc(F)cc1F (stereo not shown) [compound 81]
MIC [1]: <0.001 µM

Brc1ccc(C(Cn2ccc3ccccc32)n2ccnc2)cc1 (stereo not shown) [compound 84]
CMI or CI80 Aspergillus fumigatus (AF980003) [2]: 68 ± 3 μM and 29 ± 1 μg/mL
CI50 Leishmania mexicana Promastigotes [3]: 3.6 ± 0.4 µg/mL (≈ 9.83 µM)
IC50 [3]: 8.45 ± 1.02 µM
